Tested on: SEM cells
Experiment: cell viability relative to DMSO control; higher = less cytotoxic
Conditions: 48 h
How it was run: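 Viability, reported as a per-plate percentage of DMSO wells with cell-free wells as background, came from CellTiter-Glo One luminescence. Reading took place after 48 h at 37°C. Before that, NOMO1 or SEM (500 cells/well) or P12-Ichikawa (1000 cells/well) leukemia cells, adapted for at least four passages in each medium, were seeded in 1536-well plates (5 μl) and pin-dosed with library compounds in DMSO, 47 μM to 0.79 nM over 11 threefold points.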

[1] = HPLM + 10% dialyzed FBS, 0.000781 µM
[2] = HPLM + 10% dialyzed FBS, 0.00234 µM
[3] = HPLM + 10% dialyzed FBS, 0.00702 µM
[4] = HPLM + 10% dialyzed FBS, 0.0211 µM
[5] = HPLM + 10% dialyzed FBS, 0.0632 µM
[6] = HPLM + 10% dialyzed FBS, 0.19 µM
[7] = HPLM + 10% dialyzed FBS, 0.569 µM
[8] = HPLM + 10% dialyzed FBS, 1.71 µM
[9] = HPLM + 10% dialyzed FBS, 5.12 µM
[10] = HPLM + 10% dialyzed FBS, 15.4 µM
[11] = HPLM + 10% dialyzed FBS, 46.1 µM
[12] = RPMI 5 mM glucose + 10% FBS, 0.000781 µM
[13] = RPMI 5 mM glucose + 10% FBS, 0.00234 µM
[14] = RPMI 5 mM glucose + 10% FBS, 0.00702 µM
[15] = RPMI 5 mM glucose + 10% FBS, 0.0211 µM
[16] = RPMI 5 mM glucose + 10% FBS, 0.0632 µM
[17] = RPMI 5 mM glucose + 10% FBS, 0.19 µM
[18] = RPMI 5 mM glucose + 10% FBS, 0.569 µM
[19] = RPMI 5 mM glucose + 10% FBS, 1.71 µM
[20] = RPMI 5 mM glucose + 10% FBS, 5.12 µM
[21] = RPMI 5 mM glucose + 10% FBS, 15.4 µM
[22] = RPMI 5 mM glucose + 10% FBS, 46.1 µM
[23] = RPMI 5 mM glucose + 10% dialyzed FBS, 0.000781 µM
[24] = RPMI 5 mM glucose + 10% dialyzed FBS, 0.00234 µM
[25] = RPMI 5 mM glucose + 10% dialyzed FBS, 0.00702 µM
[26] = RPMI 5 mM glucose + 10% dialyzed FBS, 0.0211 µM
[27] = RPMI 5 mM glucose + 10% dialyzed FBS, 0.0632 µM
[28] = RPMI 5 mM glucose + 10% dialyzed FBS, 0.19 µM
[29] = RPMI 5 mM glucose + 10% dialyzed FBS, 0.569 µM
[30] = RPMI 5 mM glucose + 10% dialyzed FBS, 1.71 µM
[31] = RPMI 5 mM glucose + 10% dialyzed FBS, 5.12 µM
[32] = RPMI 5 mM glucose + 10% dialyzed FBS, 15.4 µM
[33] = RPMI 5 mM glucose + 10% dialyzed FBS, 46.1 µM

Row | Structure (SMILES) | cell viability [1] | cell viability [2] | cell viability [3] | cell viability [4] | cell viability [5] | cell viability [6] | cell viability [7] | cell viability [8] | cell viability [9] | cell viability [10] | cell viability [11] | cell viability [12] | cell viability [13] | cell viability [14] | cell viability [15] | cell viability [16] | cell viability [17] | cell viability [18] | cell viability [19] | cell viability [20] | cell viability [21] | cell viability [22] | cell viability [23] | cell viability [24] | cell viability [25] | cell viability [26] | cell viability [27] | cell viability [28] | cell viability [29] | cell viability [30] | cell viability [31] | cell viability [32] | cell viability [33]
1 | CN1CCC(=C2c3ccccc3CCc3sccc32)CC1 | 75.4% | 85% | 107% | 94.1% | 101% | 109% | 93.3% | 111% | 102% | 95.8% | 51.1% | 81.8% | 104% | 97.4% | 106% | 96.1% | 113% | 111% | 120% | 97.3% | 117% | 82.1% | 82.5% | 110% | 114% | 99.5% | 104% | 118% | 122% | 111% | 124% | 108% | 68.3%
2 | COc1cc([C@@H]2c3cc4c(cc3[C@@H](O[C@@H]3O[C@@H]5CO[C@@H](C)O[C@H]5[C@H](O)[C@H]3O)[C@H]3COC(=O)[C@H]23)OCO4)cc(OC)c1O | 82.6% | 71.6% | 81.1% | 74.9% | 50.7% | 52.7% | 49.2% | 16.1% | 8.68% | 3.97% | 2.91% | 99.8% | 96.1% | 91.8% | 70.1% | 46.4% | 59.6% | 45.1% | 10.9% | 10.3% | 3.77% | 3.27% | 70.3% | 76% | 76.1% | 64.1% | 37% | 35.8% | 34.8% | 8.52% | 5.58% | 3.22% | 2.28%
3 | CCCCC(F)(F)[C@@]1(O)CC[C@H]2[C@@H](CC(=O)[C@@H]2CCCCCCC(=O)O)O1 | 120% | 124% | 123% | 121% | 112% | 110% | 118% | 116% | 101% | 91.6% | 98.6% |  |  |  |  |  |  |  |  |  |  |  |  |  |  |  |  |  |  |  |  |  | 
4 | CC1(C)CCC(=C(\C1)C2=CC=C(Cl)C=C2)/CN3CCN(CC3)C4=CC(=C(C=C4)C(=O)N[S+]([O-])(=O)C5=CC=C(NCC6CCOCC6)C(=C5)[N+]([O-])=O)OC7=CN=C8[NH]C=CC8=C7 | 104% | 95.1% | 99.3% | 62.7% | 43.7% | 12.6% | 8.25% | 7.7% | 7.49% | 7.18% | 5.72% | 124% | 105% | 123% | 76.2% | 70% | 20.3% | 11.1% | 7.11% | 6.79% | 5.86% | 4.71% | 102% | 90.8% | 88.3% | 53.8% | 38% | 16.5% | 8.07% | 6.59% | 6.67% | 5.3% | 4.75%
5 | Cc1ccc(C)c(OCCCC(C)(C)C(=O)O)c1 | 83.8% | 81.2% | 99.6% | 85.3% | 97.3% | 94.9% | 92.5% | 92.7% | 92.6% | 98.5% | 96.8% | 97.1% | 87.2% | 87.9% | 97.9% | 94.8% | 103% | 88.7% | 93.9% | 103% | 103% | 92.1% | 91% | 104% | 93.1% | 90.7% | 104% | 91.9% | 102% | 87.1% | 99.5% | 108% | 95.5%
6 | CCOC\1=C(/C(=O)NC2=CC=C(OC3=C(Cl)C(=NC=C3)N)C(=C2)F)C(=O)N(\C=C1)C4=CC=C(F)C=C4 | 95.5% | 97.7% | 98.4% | 94.7% | 91.1% | 76.8% | 63.3% | 50.6% | 32.8% | 28.9% | 15% | 122% | 118% | 105% | 95.9% | 98.4% | 91.1% | 75.5% | 53.3% | 39.7% | 27.5% | 6.35% | 92.1% | 83.9% | 96% | 90.1% | 82.4% | 76.4% | 57% | 40% | 33.9% | 22.9% | 6.07%
7 | OCCN1CCN(CCCN2c3ccccc3Sc3ccc(C(F)(F)F)cc32)CC1 | 85.3% | 90% | 80.6% | 34.4% | 104% | 110% | 7.1% | 37.4% | 88.7% | 49.5% | 47.8% | 74.8% | 89.4% | 85.7% | 36% | 96.2% | 122% | 7.38% | 21.4% | 102% | 47.6% | 34.1% | 76.3% | 87.2% | 86.3% | 74.5% | 84% | 115% | 13.7% | 31.1% | 92.3% | 46.3% | 35.9%
